From US11226332B2, “Method for the detection, preparation and depletion of CD4+ t lymphocytes” (IMCYSE SA, priority 2013, dated 2022) come the findings set out here.

Test [1] concerns human peripheral blood CD4+ T cells. Kind of test: DQ8 tetramers loaded with insulin B9-23 peptide, facs sorting of CD4+ T cells for TCR alpha chain sequencing. The test is classed as cell-based. The settings on record: control SEQ ID 10 without thioreductase motif. From the text:
Expression of human DQ8 MHC class II molecule is associated with reactivity to a major epitope of insulin, located in the beta chain of insulin within the amino acid sequence 9-23. Human peripheral blood naïve T cell repertoire frequently contains cells expressing germline encoded alpha chain sequences, called Trav13-1, associated with various beta chain sequences, but which are sufficient as to confer a low affinity reaction with the B9-23 insulin epitope when presented by DQ8.
Peptides encompassing the sequences of the B9-23 epitope with a thioreductase motif and a one amino acid glycine linker are produced, namely […] INS9-23 (SEQ ID 9) and control peptides without thioreductase motif and linker […] INS9-23 (SEQ ID 10)
Tetramers of DQ8 are produced and loaded with each one of peptides of SEQ ID 9 or SEQ ID 10. Loaded tetramers are incubated with human peripheral blood CD4+ T cells. Cells are washed, analysed by facs and sorted out. Cells are then washed from tetramers and used for TCR alpha chain sequencing using corresponding primers.

Test [2] concerns Dby-specific CD4+ T cells. Description: Depletion of Dby-specific CD4+ T cells with peptide-loaded H-2b class II beads, then male bone marrow grafting in reconstituted RAG2 KO mice. The test is classed as in vivo, mouse. The conditions noted are these: RAG2 KO mice reconstituted with female H-2b lymphocytes depleted on beads coated with class II H-2b molecules loaded with peptide. From the text:
In the mouse model, male bone marrow is rejected by syngeneic females due to recognition of H-Y encoded antigens among which the Dby protein plays a major role. A majority of CD4+ T cells recognize an epitope made of residues FNSNRANSS of the murine Dby antigen which is encoded by the […]
A synthetic peptide made of this class II restricted T cell epitope with a thioreductase motif is produced, corresponding to CHGCFNSNRANSS [SEQ ID NO:5] and the corresponding Dby peptide in natural configuration is produced as a control, namely […].
Lymphocytes from the spleen of female H-2b mice are prepared by magnetic bead sorting. The cells are then incubated with a suspension of beads coated with class II H-2b molecules and loaded with peptide of SEQ ID 5 or of SEQ ID 6. Lymphocytes T cells, containing all CD4+ T cells not retained on beads and CD8+ T cells, are used to reconstitute RAG2 KO mice, which are then engrafted by the bone marrow of a male syngeneic donor. RAG2 KO mice have no functional adaptive immune system and are therefore unable to reject the graft. Rejection is thereby depending only of cells present in the passively transferred population.

The test system of test [3] is GAD65-specific CD4+ T cells. Description: Sorting of GAD65-specific CD4+ T cells from NOD mouse spleen with peptide-loaded class II tetramers and expansion to cytolytic CD4+ T cells. It counts as cell-based, NOD mice. The method, then: NOD (non-obese diabetic) mice spontaneously develop diabetes by progressive destruction of insulin-producing Langerhans islet cells. NOD mice are considered as a representative pre-clinical model of human IDDM. Effector CD4+ T cells against GAD65 are prepared from the spleen of diseased animals by first depleting non-CD4+ cells. CD4+ cells are then incubated with class II tetramers loaded with a GAD65 class II restricted epitope encompassing a thioreductase motif in flanking residues.
The sequence of the peptide is therefore CRLCKVAPVIKARMM (GAD65 524-543) (SEQ ID NO: 7) A peptide of GAD65 without thioreductase motif is prepared for control experiments KVAPVIKARMM (SEQ ID NO: 8).
Cells are then sorted by facs according to their binding of peptide-loaded tetramers. Positive cells are then maintained in culture and stimulated with APC loaded with peptide of SEQ ID 7 to generate cytolytic CD4+ T cells, as described in the WO2008017517 patent application.

In test [4] the test system is CD4+ T cells from peripheral blood. Kind of test: MHC class II tetramers loaded with influenza hemagglutinin peptide, counting of CD4+ T cells by facs before and after vaccination. The test is classed as cell-based. The settings on record: fluorescence-labeled MHC class II tetramers loaded with peptide; compared with peptide of SEQ ID 4 without thioreductase motif.
In test [5] the test system is MOG-specific naïve CD4+ T cells. Description: DRB1*1501 MHC class II tetramers loaded with MOG peptide, detection of naïve CD4+ T cells by facs. The test is classed as cell-based, human. The conditions noted are these: DRB1*1501 tetramers loaded with peptide, 2 h at 37° C, control: same peptide without thioreductase motif (SEQ ID NO:2). The method, then:
Naïve CD4+ T cells are prepared from the peripheral repertoire of DRB1*1501+ subjects susceptible to suffer from multiple sclerosis, using magnetic beads to remove CD4(−) cells and memory cells, as described in the art. Tetramers of DRB1*1501 are made as known in the art (Kasprowicz V et al. (2006) J. Virol. 80, 11209-112017), including a fluorescent label such as Ficoerythrin. A synthetic peptide is produced, which encompasses the corresponding class II-restricted MOG
T cell epitope and a thioreductase motif CGPCSRVVHLYRNGK D [SEQ ID NO: 1], which corresponds to amino acid residues 47-58 of the MOG protein.
Tetramers are loaded with peptide of SEQ ID 1 overnight at room temperature in the appropriate buffer conditions as known in the art. Loaded tetramers are then washed and incubated with naïve CD4+ T cells for 2 h at 37° C. The suspension is then read with a fluorescence-activated cell sorting (facs) system and the proportion of naïve cells specific to the MOG peptide evaluated Control experiments are performed with MHC complex with the same peptide without thioreductase motif. SRVVHLYRNGKD [SEQ ID NO:2].

Take “CGHCGSHLVEALYLVCGERG (redox motif + glycine linker+ insulin epitope) [SEQ ID 9]”: the “number of cells obtained by tetramer sorting for TCR sequencing” value in test [1] was “obtained in sufficient number as to allow TCR sequencing”. Regarding FNSNRANSS (Dby epitope) [SEQ ID 6], the “graft acceptance (male bone marrow)” value in test [2] is listed as “no improvement of graft acceptance”. Consider “CRLCKVAPVIKARMM (redox motif + GAD65 epitope) [SEQ ID 7]”, for which the figures for the “yield of GAD65-specific cytolytic CD4+ T cells” value in test [3] (tetramer sorting compared with the method of WO2008017517 (peptide added to T cells from spleen of NOD mice)) and in test [3] (tetramers loaded with peptide of SEQ ID 7 instead of peptide of SEQ ID 8) were “higher” and “significantly increased”, respectively. Take “CGHCKYVKQNTLKHEMAGG (redox motif + influenza hemaglutinin epitope) [SEQ ID 3]”: in test [4], the “number of CD4+ T cells detected in peripheral blood” value was “higher number of CD4+ T cells are detected”. On to CGPCSRVVHLYRNGKD [SEQ ID 1], for which the “detection of naïve CD4+ T cells specific to the MOG sequence” value in test [5] is on record as “able to detect naïve CD4+ T cells”.
